Experimental data published in US8158792B2, “Spiropiperidines for use as tryptase inhibitors” (Janssen Pharmaceutica N.V., priority 2007, dated 2012).

Target: human lung tryptase
Experiment: β-Tryptase In-Vitro Enzyme Assay
Format: biochemical
Details: human lung tryptase 1 nM, substrate H-D-HHT-Ala-Arg-pNa 500 μM, pH 7.4, room temperature
Experimental: The β-tryptase assay was conducted with human lung tryptase (Cortex Biochem #CP3033) in an aqueous buffer (10 mM Tris, 10 mM Hepes, 150 mM NaCl, 0.1% PEG 8000, pH 7.4) using the chromogenic substrate H-D-HHT-Ala-Arg-pNa. […] Percent inhibition was calculated by comparing the initial reaction velocity of samples without inhibitor to those with inhibitor. The initial reaction velocities were analyzed using Microsoft Excel.

SMILES | IC50 [nM]
CCCc1ccc(OCc2ccc(C(=O)N3CCC4(CC3)COc3ccc(CN)cc34)o2)c(OC)c1 [Cpd 212, 1-[5-(2-methoxy-4-propyl-phenoxymethyl)-furan-2-yl]carbonyl-5′-aminomethyl-spiro[piperidine-4,3′-(2H)-benzo[b]furan]] | 370
Cc1cccc2c(C(=O)N3CCC4(CC3)COc3ccc(CN)cc34)c[nH]c12 [Cpd 249, 1-(7-methyl-indol-3-yl)carbonyl-5′-aminomethyl-spiro[piperidine-4,3′-(2H)-benzo[b]furan]] | 830
NCc1ccc2c(c1)C1(CCN(C(=O)c3ccc4c(c3)C(=O)c3ccccc3-4)CC1)CO2 [Cpd 8, 1-(9-oxo-fluoren-2-yl)carbonyl-5′-aminomethyl-spiro[piperidine-4,3′-(2H)-benzo[b]furan]] | 3400
NCc1ccc2c(c1)C1(CCN(C(=O)[C@@H]3C[C@H]3c3ccccc3)CC1)CO2 (relative stereo) [Cpd 141, 1-(trans-2-phenyl-cyclopropyl)carbonyl-5′-aminomethyl-spiro[piperidine-4,3′-(2H)-benzo[b]furan]] | 480
NCc1ccc2c(c1)C1(CCN(C(=O)c3cccc(NC(=O)Cc4cccs4)c3)CC1)CO2 [Cpd 19, 1-(3-thien-2-ylmethylcarbonylamino-phenyl)carbonyl-5′-aminomethyl-spiro[piperidine-4,3′-(2H)-benzo[b]furan]] | 560
NCc1ccc2c(c1)C1(CCN(C(=O)c3ccc(CN4CCOCC4)o3)CC1)CO2 [Cpd 216, 1-(5-morpholin-4-ylmethyl-furan-2-yl)carbonyl-5′-aminomethyl-spiro[piperidine-4,3′-(2H)-benzo[b]furan]] | 1700
Cc1cc(C(=O)N2CCC3(CC2)COc2ccc(CN)cc23)sc1C(O)O [Cpd 256, 1-(5-dihydroxymethyl-4-methyl-thien-2-yl)carbonyl-5′-aminomethyl-spiro[piperidine-4,3′-(2H)-benzo[b]furan]] | 820
NCc1ccc2c(c1)C1(CCN(C(=O)c3cccc(F)c3)CC1)CO2 [Cpd 42, 1-(3-fluoro-phenyl)carbonyl-5′-aminomethyl-spiro[piperidine-4,3′-(2H)-benzo[b]furan]] | 360
CCc1ccc2c(Cl)c(C(=O)N3CCC4(CC3)COc3ccc(CN)cc34)sc2c1 [Cpd 271, 1-(3-chloro-6-ethyl-benzo[b]thien-2-yl)carbonyl-5′-aminomethyl-spiro[piperidine-4,3′-(2H)-benzo[b]furan]] | 2800
NCc1ccc2c(c1)C1(CCN(C(=O)c3cccc4c3C(=O)c3ccccc3-4)CC1)CO2 [Cpd 270, 1-(9-oxo-fluoren-1-yl)carbonyl-5′-aminomethyl-spiro[piperidine-4,3′-(2H)-benzo[b]furan]] | 6400
NCc1ccc2c(c1)C1(CCN(C(=O)c3ccc(C#Cc4ccccc4)o3)CC1)CN2CCC(=O)O [Cpd 322, 1-(5-phenylethynyl-furan-2-yl)carbonyl-1′-(2-carboxy-ethyl)-5′-aminomethyl-spiro[piperidine-4,3′-(2H)-indole]] | 450
NCc1ccc2c(c1)C1(CCN(C(=O)c3cc4cc(C(F)(F)F)ccc4s3)CC1)CO2 [Cpd 200, 1-(5-trifluoromethyl-benzo[b]thien-2-yl)carbonyl-5′-aminomethyl-spiro[piperidine-4,3′-(2H)-benzo[b]furan]] | 4100
NCc1ccc2c(c1)C1(CCN(C(=O)/C=C/c3ccoc3)CC1)CO2 [Cpd 251, (E)-1-(furan-3-ylethenyl)carbonyl-5′-aminomethyl-spiro[piperidine-4,3′-(2H)-benzo[b]furan]] | 1500
Cc1nc(-c2cccnc2)sc1C(=O)N1CCC2(CC1)COc1ccc(CN)cc12 [Cpd 124, 1-(2-pyridin-3-yl-4-methyl-thiazol-5-yl)carbonyl-5′-aminomethyl-spiro[piperidine-4,3′-(2H)-benzo[b]furan]] | 1100
NCc1ccc2c(c1)C1(CCN(C(=O)c3ccc(C#Cc4ccccc4)o3)CC1)CN2CCP(=O)(O)O [Cpd 326, 1-(5-phenylethynyl-furan-2-yl)carbonyl-5′-aminomethyl-spiro[piperidine-4,3′-(2H)-indole]-1′-(2-ethyl-phosphonic acid)] | 470
NCc1ccc2c(c1)C1(CCN(C(=O)Cc3ccc(I)cc3)CC1)CO2 [Cpd 96, 1-(4-iodo-benzyl)carbonyl-5′-aminomethyl-spiro[piperidine-4,3′-(2H)-benzo[b]furan]] | 450
COc1ccc(CC(=O)N2CCC3(CC2)COc2ccc(CN)cc23)cc1C [Cpd 102, 1-(3-methyl-4-methoxy-benzyl)carbonyl-5′-aminomethyl-spiro[piperidine-4,3′-(2H)-benzo[b]furan]] | 600
NCc1ccc2c(c1)C1(CCN(C(=O)C#Cc3ccccc3)CC1)CO2 [Cpd 296, 1-phenylethynylcarbonyl-5′-aminomethyl-spiro[piperidine-4,3′-(2H)-benzo[b]furan]] | 210

Further lines, results first:

IC50 [nM] | SMILES
6 | NCc1ccc2c(c1)C1(CCN(C(=O)c3nc(-c4cccs4)no3)CC1)CO2 [Cpd 277, 1-(3-thien-2-yl-[1,2,4]oxadiazol-5-yl)carbonyl-5′-aminomethyl-spiro[piperidine-4,3′-(2H)-benzo[b]furan]]
190 | CN(C)c1cccc(C(=O)N2CCC3(CC2)COc2ccc(CN)cc23)c1 [Cpd 56, 1-(3-dimethylamino-phenyl)carbonyl-5′-aminomethyl-spiro[piperidine-4,3′-(2H)-benzo[b]furan]]
340 | NCc1ccc2c(c1)C1(CCN(C(=O)c3ccc(Cn4cc(Cl)cn4)o3)CC1)CO2 [Cpd 145, 1-[5-(4-chloro-pyrazol-1-ylmethyl)-furan-2-yl]carbonyl-5′-aminomethyl-spiro[piperidine-4,3′-(2H)-benzo[b]furan]]
44 | COc1cccc(OCc2ccc(C(=O)N3CCC4(CC3)COc3ccc(CN)cc34)o2)c1 [Cpd 227, 1-[5-(3-methoxy-phenoxymethyl)-furan-2-yl]carbonyl-5′-aminomethyl-spiro[piperidine-4,3′-(2H)-benzo[b]furan]]
41 | NCc1ccc2c(c1)C1(CCN(C(=O)c3ccc(C#Cc4cc(F)cc(F)c4)o3)CC1)CO2 [Cpd 176, 1-[5-(3,5-difluoro-phenylethynyl)-furan-2-yl]carbonyl-5′-aminomethyl-spiro[piperidine-4,3′-(2H)-benzo[b]furan]]
130 | NCc1ccc2c(c1)C1(CCN(C(=O)/C=C/c3ccc4ccccc4c3)CC1)CO2 [Cpd 113, (E)-1-(naphthalene-2-ylethenyl)carbonyl-5′-aminomethyl-spiro[piperidine-4,3′-(2H)-benzo[b]furan]]
26 | NCc1ccc2c(c1)C1(CCN(C(=O)c3ccc(C#Cc4ccccc4)o3)CC1)CN2 [Cpd 319, 1-(5-phenylethynyl-furan-2-yl)carbonyl-5′-aminomethyl-spiro[piperidine-4,3′-(2H)-indole]]
290 | COC(=O)c1cccc(C(=O)N2CC3(CCN(C(=O)c4ccc(C#Cc5ccccc5)o4)CC3)c3cc(CN)ccc32)c1 [Cpd 328, 1-(5-phenylethynyl-furan-2-yl)carbonyl-1′-(3-methoxycarbonyl-phenyl)carbonyl-5′-aminomethyl-spiro[piperidine-4,3′-(2H)-indole]]
37 | Cc1c(C(=O)N2CCC3(CC2)COc2ccc(CN)cc23)oc2cc(-c3ccccc3)ccc12 [Cpd 228, 1-(3-methyl-6-phenyl-benzo[b]furan-2-yl)carbonyl-5′-aminomethyl-spiro[piperidine-4,3′-(2H)-benzo[b]furan]]
150 | C[SH]1C=C(C(F)(F)F)C2=C1NN(C(=O)N1CCC3(CC1)COc1ccc(CN)cc13)C2 (centres unmarked) [Cpd 276, 1-(4-trifluoromethyl-6-methyl-1H-thieno[2,3-c]pyrazol-2-yl)carbonyl-5′-aminomethyl-spiro[piperidine-4,3′-(2H)-benzo[b]furan]]
73 | CCOc1sc(C(=O)N2CCC3(CC2)COc2ccc(CN)cc23)c2c1C(=O)CCC2 [Cpd 261, 1-(3-ethoxy-4-oxo-5,6,7-trihydro-4H-benzo[c]thien-1-yl)carbonyl-5′-aminomethyl-spiro[piperidine-4,3′-(2H)-benzo[b]furan]]
65 | CS(=O)(=O)CC(=O)N1CC2(CCN(C(=O)c3ccc(C#Cc4ccccc4)o3)CC2)c2cc(CN)ccc21 [Cpd 333, 1-(5-phenylethynyl-furan-2-yl)carbonyl-1′-(methylsulfonylmethyl)carbonyl-5′-aminomethyl-spiro[piperidine-4,3′-(2H)-indole]]
20 | NCc1ccc2c(c1)C1(CCN(C(=O)c3ccc(Cl)c(I)c3)CC1)CO2 [Cpd 34, 1-(3-iodo-4-chloro-phenyl)carbonyl-5′-aminomethyl-spiro[piperidine-4,3′-(2H)-benzo[b]furan]]
15 | CC1(C)CC(=O)c2c(SCc3ccccc3)sc(C(=O)N3CCC4(CC3)COc3ccc(CN)cc34)c2C1 [Cpd 232, 1-(3-benzylthio-4-oxo-6,6-dimethyl-6,7-dihydro-5H-benzo[c]thien-1-yl)carbonyl-5′-aminomethyl-spiro[piperidine-4,3′-(2H)-benzo[b]furan]]
44 | CCOC(=O)C(=O)N1CC2(CCN(C(=O)c3ccc(C#Cc4ccccc4)o3)CC2)c2cc(CN)ccc21 [Cpd 329, 1-(5-phenylethynyl-furan-2-yl)carbonyl-1′-(2-ethoxy-1,2-dioxo-ethyl)-5′-aminomethyl-spiro[piperidine-4,3′-(2H)-indole]]
230 | COc1cccc2c1OCC(C(=O)N1CCC3(CC1)COc1ccc(CN)cc13)=C2 [Cpd 197, 1-(8-methoxy-(2H)-chromen-3-yl)carbonyl-5′-aminomethyl-spiro[piperidine-4,3′-(2H)-benzo[b]furan]]
290 | NCc1ccc2c(c1)C1(CCN(C(=O)/C=C/c3ccc(Cl)c(Cl)c3)CC1)CO2 [Cpd 116, (E)-1-(3,4-dichloro-phenylethenyl)carbonyl-5′-aminomethyl-spiro[piperidine-4,3′-(2H)-benzo[b]furan]]
